The target of assay [1] is Intestinal-type alkaline phosphatase (Bos taurus, UniProt P19111). The assay can be described thus: Alkaline Phosphatase Assay. As to conditions: pH 9.8; 37 °C. The protocol: Alkaline phosphatase assay was optimized and performed in the same way as previously reported method with slight modifications [Sergienko et al., Nat. Protoc., 5:1431-1439]. All compounds were analyzed at a final concentration of 200 μM (1% DMSO) by using assay buffer with composition of […] diethanolamine (DEA) (pH 9.8), 0.05 mM ZnCl2 and 2.5 mM MgCl2. The total reaction volume was kept 50 μL containing 10 μL of tested compound, 20 μL of b-TNAP (1:800 (0.8 units/mL) diluted enzyme in assay buffer) or c-IAP (1:800 (1 units/mL) diluted enzyme in assay buffer). After incubation for 3-5 min at 37 °C., the luminescence was measured as a pre-read using microplate reader (BioTek FLx800, Instruments, Inc. USA). Then, 20 μL of substrate (CDPstar®) (final concentration of 110 μM) was added to the reaction mixture to initiate the enzymatic reaction. The change in the luminescence was recorded after 15 min. at 37 °C. The activity of each compound was measured in comparison with control (without any inhibitor). Levamisole (2 mM per well) and L-phenylalanine (4 mM per well) were used as standards (positive control) against b-TNAP) and c-IAP), respectively.
Sequence of Intestinal-type alkaline phosphatase (P19111 whole entry): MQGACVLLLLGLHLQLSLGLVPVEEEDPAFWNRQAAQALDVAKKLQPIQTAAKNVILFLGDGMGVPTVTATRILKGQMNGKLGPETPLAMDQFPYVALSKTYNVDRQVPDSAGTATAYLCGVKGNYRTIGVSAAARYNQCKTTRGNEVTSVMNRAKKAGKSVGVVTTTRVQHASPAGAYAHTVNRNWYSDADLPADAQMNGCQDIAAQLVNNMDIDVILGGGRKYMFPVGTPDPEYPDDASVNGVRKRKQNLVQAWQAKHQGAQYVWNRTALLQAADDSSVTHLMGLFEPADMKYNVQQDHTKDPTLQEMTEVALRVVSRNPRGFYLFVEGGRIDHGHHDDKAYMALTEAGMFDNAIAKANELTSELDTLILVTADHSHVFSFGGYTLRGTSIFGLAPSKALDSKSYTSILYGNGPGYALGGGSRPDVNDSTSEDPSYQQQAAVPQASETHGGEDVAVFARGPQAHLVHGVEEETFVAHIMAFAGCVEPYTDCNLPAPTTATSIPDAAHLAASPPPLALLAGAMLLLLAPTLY

For assay [2], the target named is 5'-nucleotidase (Homo sapiens, UniProt P21589). The assay is described as follows: Ecto-5'-Nucleotidase Inhibition Assay. As to conditions: pH 7.4; 37 °C. The protocol: (§1) Then the mixture was placed in water bath at 99 °C for 20 min to stop the enzymatic reaction by thermal denaturation of protein. The aliquots of 50 μL of this reaction mixture were transferred into CE mini vials and injected hydrodynamically into the capillary under pressure of 0.5 psi for 5 s, followed by the application of 15 kV voltage for separation of substrate and product peaks.
Sequence of 5'-nucleotidase (Homo sapiens, UniProt P21589) (P21589 whole entry): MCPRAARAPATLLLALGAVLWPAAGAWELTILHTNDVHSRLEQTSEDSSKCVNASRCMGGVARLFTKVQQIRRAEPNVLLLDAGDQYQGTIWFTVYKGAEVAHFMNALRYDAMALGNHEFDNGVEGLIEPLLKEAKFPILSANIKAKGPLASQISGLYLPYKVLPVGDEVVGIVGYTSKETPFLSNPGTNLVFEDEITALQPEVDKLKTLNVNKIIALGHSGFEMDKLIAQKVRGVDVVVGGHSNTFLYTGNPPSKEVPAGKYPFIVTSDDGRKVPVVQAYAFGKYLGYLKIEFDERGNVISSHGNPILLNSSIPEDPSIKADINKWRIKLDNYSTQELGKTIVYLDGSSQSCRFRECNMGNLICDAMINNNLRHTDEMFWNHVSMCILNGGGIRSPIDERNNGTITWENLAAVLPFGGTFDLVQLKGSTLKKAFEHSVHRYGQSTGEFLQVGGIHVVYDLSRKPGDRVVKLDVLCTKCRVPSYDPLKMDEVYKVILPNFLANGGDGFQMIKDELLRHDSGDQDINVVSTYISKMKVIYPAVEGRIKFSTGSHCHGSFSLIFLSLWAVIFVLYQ

Assay [3] concerns the target T1, 5'-nucleotidase (Rattus norvegicus, UniProt P21588).
T1 sequence (P21588 whole entry): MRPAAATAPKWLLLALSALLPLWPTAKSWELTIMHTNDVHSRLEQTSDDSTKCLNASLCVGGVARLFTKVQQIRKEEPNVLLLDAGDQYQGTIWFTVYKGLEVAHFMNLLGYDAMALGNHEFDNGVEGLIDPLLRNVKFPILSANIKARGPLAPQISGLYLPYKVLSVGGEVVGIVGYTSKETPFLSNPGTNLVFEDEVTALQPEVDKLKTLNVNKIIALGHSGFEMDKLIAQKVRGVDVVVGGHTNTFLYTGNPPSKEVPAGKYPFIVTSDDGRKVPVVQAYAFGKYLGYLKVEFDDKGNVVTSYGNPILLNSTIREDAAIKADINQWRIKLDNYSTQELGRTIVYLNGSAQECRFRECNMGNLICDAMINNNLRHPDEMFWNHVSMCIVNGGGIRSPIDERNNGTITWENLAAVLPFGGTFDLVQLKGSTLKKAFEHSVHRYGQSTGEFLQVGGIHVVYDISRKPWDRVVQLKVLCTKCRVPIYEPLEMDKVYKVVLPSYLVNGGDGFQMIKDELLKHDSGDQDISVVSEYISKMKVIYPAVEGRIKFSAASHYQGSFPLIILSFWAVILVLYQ
The assay is described as follows: Ecto-5'-Nucleotidase Inhibition Assay. The note with it: pH 7.4; 37 °C. The method, then: as §1

A short description of assay [4]: Alkaline Phosphatase Assay. The note with it: pH 9.8; 37 °C.

The structures appear in SMILES notation.

The IC50 is the midpoint of a concentration-inhibition curve. A lower IC50 goes with greater potency.

On to `COc1cc(/C=C/C(=O)/C(=N/Nc2ccc(S(N)(=O)=O)cc2)N2CCOCC2)cc(OC)c1OC` [(Z)-4-(2-((E)-1-morpholino-2-oxo-4-(3,4,5-Trimethoxyphenyl)but-3-enylidene) hydrazinyl)benzenesulfonamide (4f)], for which the IC50 is 2.57 µM in assay [1], 1.75 µM against 5'-nucleotidase [2] and 0.68 µM on 5'-nucleotidase [3].

Compound `NS(=O)(=O)c1ccc(N/N=C(/C(=O)/C=C/c2cccc([N+](=O)[O-])c2)N2CCOCC2)cc1` [(Z)-4-(2-((E)-1-morpholino-4-(3-Nitrophenyl)-2-oxobut-3-enylidene)hydrazinyl) benzenesulfonamide (4j)] displayed a half-maximal inhibitory concentration (IC50) in assay [1] of 0.74 µM.

Take `NS(=O)(=O)c1ccc(N/N=C(/C(=O)/C=C/c2ccc(Cl)cc2Cl)N2CCOCC2)cc1` [(Z)-4-(2-((E)-4-(2,4-dichlorophenyl)-1-morpholino-2-oxobut-3-enylidene)hydrazinyl) benzenesulfonamide (4b)]: the IC50 in assay [1] was 0.68 µM; against 5'-nucleotidase [2] it was 3.32 µM; against 5'-nucleotidase [3], 2.85 µM.

For `NS(=O)(=O)c1ccc(N/N=C(/C(=O)/C=C/c2ccccc2Br)N2CCOCC2)cc1` [(Z)-4-(2-((E)-4-(2-bromophenyl)-1-morpholino-2-oxobut-3-enylidene)hydrazinyl) benzenesulfonamide (4i)], the IC50 came to 1.21 µM in assay [1], 2.92 µM at 5'-nucleotidase [2] and 22.4 µM against 5'-nucleotidase [3].

`NS(=O)(=O)c1ccc(N/N=C(/C(=O)/C=C/c2ccccc2Cl)N2CCOCC2)cc1` [(Z)-4-(2-((E)-4-(2-chlorophenyl)-1-morpholino-2-oxobut-3-enylidene)hydrazinyl) benzenesulfonamide (4a)]: the IC50 in assay [1] came to 0.12 µM; at 5'-nucleotidase [2], 11.6 µM; at 5'-nucleotidase [3] it was 6.43 µM.

The compound `NS(=O)(=O)c1ccc(N/N=C(/C(=O)/C=C/c2ccccc2F)N2CCOCC2)cc1` [(Z)-4-(2-((E)-4-(2-fluorophenyl)-1-morpholino-2-oxobut-3-enylidene)hydrazinyl) benzene-sulfonamide (4g)] returned a half-maximal inhibitory concentration (IC50) in assay [1] of 0.44 µM.

For `COc1ccc(/C=C/C(=O)/C(=N/Nc2ccc(S(N)(=O)=O)cc2)N2CCOCC2)cc1OC` [(Z)-4-(2-((E)-4-(3,4-dimethoxyphenyl)-1-morpholino-2-oxobut-3-enylidene) hydrazinyl) benzenesulfonamide (4e)], the figures for the IC50 (in assay [1]; on 5'-nucleotidase [3]) were 0.35 µM and 7.41 µM, respectively.

In turn, `NS(=O)(=O)c1ccc(N/N=C(/C(=O)/C=C/c2cccc(F)c2)N2CCOCC2)cc1` [(Z)-4-(2-((E)-4-(3-fluorophenyl)-1-morpholino-2-oxobut-3-enylidene)hydrazinyl) benzenesulfonamide (4h)] displayed a 50% inhibitory concentration (IC50) in assay [1] of 0.73 µM.

As to `COc1cccc(/C=C/C(=O)/C(=N/Nc2ccc(S(N)(=O)=O)cc2)N2CCOCC2)c1` [(Z)-4-(2-((E)-4-(3-methoxyphenyl)-1-morpholino-2-oxobut-3-enylidene)hydrazinyl) benzenesulfonamide (4c)], the half-inhibitory concentration (IC50) in assay [1] turned out to be 0.99 µM.

Consider `COc1ccc(/C=C/C(=O)/C(=N/Nc2ccc(S(N)(=O)=O)cc2)N2CCOCC2)cc1` [(Z)-4-(2-((E)-4-(4-methoxyphenyl)-1-morpholino-2-oxobut-3-enylidene)hydrazinyl) benzenesulfonamide (4d)], for which the values for the IC50 in assay [4] and in assay [1] were 0.33 µM and 1.71 µM, respectively.

Source of the values: BindingDB's records for doi:10.1016/j.bioorg.2017.01.003 (Comsats Institute of Information Technology, 2017).
